# Test results from publication PMC11811597, “Phenomics‐Based Discovery of Novel Orthosteric Choline Kinase Inhibitors” (Angewandte Chemie (International Ed. in English), 2025).
# Biological target: T1, EHMT2 (G9a) (Homo sapiens, UniProt Q96KQ7)
# T1 sequence (Q96KQ7 1-1210): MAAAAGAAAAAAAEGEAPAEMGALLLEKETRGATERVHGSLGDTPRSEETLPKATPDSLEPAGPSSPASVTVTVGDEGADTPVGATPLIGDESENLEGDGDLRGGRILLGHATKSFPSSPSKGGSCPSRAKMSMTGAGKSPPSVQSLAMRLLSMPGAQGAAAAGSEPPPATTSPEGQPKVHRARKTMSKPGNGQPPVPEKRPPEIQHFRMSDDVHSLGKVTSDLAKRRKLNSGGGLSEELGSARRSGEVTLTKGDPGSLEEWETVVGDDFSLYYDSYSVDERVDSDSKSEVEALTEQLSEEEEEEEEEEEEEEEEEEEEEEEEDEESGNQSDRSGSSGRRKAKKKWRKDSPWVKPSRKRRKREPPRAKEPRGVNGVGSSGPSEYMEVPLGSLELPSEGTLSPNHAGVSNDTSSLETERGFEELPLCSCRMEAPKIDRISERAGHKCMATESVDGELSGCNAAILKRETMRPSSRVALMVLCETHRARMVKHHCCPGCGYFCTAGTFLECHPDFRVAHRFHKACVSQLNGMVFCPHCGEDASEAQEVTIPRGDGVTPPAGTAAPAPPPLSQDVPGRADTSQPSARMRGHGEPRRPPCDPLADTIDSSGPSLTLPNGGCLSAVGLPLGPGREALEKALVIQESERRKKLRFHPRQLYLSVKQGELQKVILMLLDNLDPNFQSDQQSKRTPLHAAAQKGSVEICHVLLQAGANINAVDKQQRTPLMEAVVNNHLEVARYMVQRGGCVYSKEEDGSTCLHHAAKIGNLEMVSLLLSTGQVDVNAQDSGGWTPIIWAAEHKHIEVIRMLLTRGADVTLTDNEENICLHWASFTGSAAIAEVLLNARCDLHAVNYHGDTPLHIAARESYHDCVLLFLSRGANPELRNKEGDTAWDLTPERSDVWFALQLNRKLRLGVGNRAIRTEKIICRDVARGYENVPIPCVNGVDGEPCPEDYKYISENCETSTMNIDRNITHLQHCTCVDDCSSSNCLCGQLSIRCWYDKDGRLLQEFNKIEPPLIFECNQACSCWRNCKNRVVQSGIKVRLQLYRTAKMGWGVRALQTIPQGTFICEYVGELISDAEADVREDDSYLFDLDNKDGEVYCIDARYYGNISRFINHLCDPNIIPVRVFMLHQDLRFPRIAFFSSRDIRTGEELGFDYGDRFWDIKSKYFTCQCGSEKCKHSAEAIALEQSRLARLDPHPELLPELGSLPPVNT
# Assay: Competitive affinity-based chemoproteomics (UNC0965 matrix), PBMC cell extract
# Type: binding
# Parameters: endogenous in cells
# Conditions: 20 µM competitor
# Description: described.[2] Lysates were precleared with bead slurry (100 μL) for 30 min at 4 °C and then treated with UNC0638 or UNC0737 (20 μM) or DMSO control for 30 min at 4 °C followed by incubation with affinity matrix for 2 h at 4 °C. Affinity matrices were washed with buffer A (5 mL) and proteins eluted with 100 μL of 2x Laemmli sample buffer, 100 mM DTT, in PBS and heating for 10 min at 90 °C.
# Eluents (70 µL) were diluted in 0.1 M Tris (pH 7.8) to 200 µL, reduced with 5 mM DTT for 30 min at RT, and alkylated with 20 mM iodoacetamide for 30 min at RT in the dark. Proteins were precipitated by sequential addition of MeOH (600 µL), CHCl3 (150 µL) and H2O (450 µL), pelleted (17,000 × g, 5 min), washed with further MeOH (2 × 600 µL), and re-pelleted. Air dried pellets were resuspended in 50 μL 6 M urea (pH 7.8) by vortexing and then diluted with 250 μL H2O before adding 1 µg trypsin for overnight incubation at 37 °C. The digests were acidified with FA (1% v/v final concentration), desalted using SOLA HRP SPE Cartridges (Thermo Fisher), eluted with 69% v/v MeCN, 0.1% v/v FA in H2O (600 μL) and dried in vacuo. Dried peptides were stored at -20 °C before resuspension in 2% v/v MeCN, 0.1% v/v FA in H2O (20 μL) for LC-MS/MS analysis.
# LC-MS/MS Data Acquisition
# Digested samples were analysed by nano-UPLC–MS/MS using a Dionex Ultimate 3000 nano UPLC fitted with an EASY spray column (75 μm × 500 mm, 2 μm particle size, Thermo Scientific), coupled to an Orbitrap Q Exactive instrument. […]
# Raw data was processed using MaxQuant[3] version 2.0.1.0 and the reference complete human proteome FASTA file (UniProt, downloaded 05.08.21). Label Free Quantification (LFQ) and Match Between Runs were selected; Cysteine carbamidomethylation was selected as a fixed modification, and methionine oxidation and asparagine deamidation as variable modifications. Default settings for identification and quantification were used. […]
# mode selected for both identification and quantification of proteins (razor peptides are uniquely assigned to protein groups and not to individual proteins).
smiles,measurement,value
COc1cc2c(NC3CCN(C(C)C)CC3)nc(C3CCCCC3)nc2cc1OCCCN1CCCC1 [UNC0638],EHMT2 (G9a) binding to the matrix,reduced binding to the matrix
